What was measured:
[1] = molecular target: T1, Prostacyclin (PGI2) Synthetase (Sus scrofa, UniProt A0A5G2QT35); settings: pre-incubation with pig aorta microsome enzyme; literature; cited from earlier work
T1 construct: Pig aorta microsomes; from tissue; host or cells: pig aorta (microsomes)
T1 sequence (A0A5G2QT35 1-497): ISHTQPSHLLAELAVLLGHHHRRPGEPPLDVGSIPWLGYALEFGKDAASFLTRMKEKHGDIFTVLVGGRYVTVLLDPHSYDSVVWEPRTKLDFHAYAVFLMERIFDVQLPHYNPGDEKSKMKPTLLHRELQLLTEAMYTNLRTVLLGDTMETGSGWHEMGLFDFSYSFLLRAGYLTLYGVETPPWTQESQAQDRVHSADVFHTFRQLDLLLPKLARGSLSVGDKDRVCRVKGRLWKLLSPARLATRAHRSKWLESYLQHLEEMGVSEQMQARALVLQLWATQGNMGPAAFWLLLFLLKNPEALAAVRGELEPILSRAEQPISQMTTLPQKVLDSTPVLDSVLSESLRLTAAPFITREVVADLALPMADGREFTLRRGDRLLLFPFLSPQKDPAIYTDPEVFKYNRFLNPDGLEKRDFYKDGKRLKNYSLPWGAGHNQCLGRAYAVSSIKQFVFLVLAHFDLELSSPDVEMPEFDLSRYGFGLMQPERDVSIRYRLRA

[2] = test system: aggregation of platelets in the rat aorta; settings: rats in vivo; literature; cited from earlier work
[3] = test system: lethal effect of arachidonic acid injection; settings: intravenous arachidonic acid; literature; cited from earlier work
[4] = test system: human blood platelet aggregation; settings: human blood platelets, variety of aggregating agents; literature; cited from earlier work
[5] = test system: cyclo-oxygenase enzyme; settings: background statement; cited from earlier work
[6] = molecular target: T2, Thromboxane A2 (TxA2) Synthetase (Homo sapiens, UniProt P24557); test: Thromboxane A2 (TxA2) synthetase inhibition in vitro (isometric tension of rabbit aorta spirals); type: biochemical; settings: Indomethacin pretreated human platelet microsomes; PGH2 substrate, 2 min, 0° C; 5 min pre-incubation; read-out: Molar concentration causing 50% inhibition of TxA2 Synthetase
T2 construct: Indomethacin pretreated human platelet microsomes; from tissue; host or cells: human platelets (microsomes)
T2 sequence (P24557 1-533): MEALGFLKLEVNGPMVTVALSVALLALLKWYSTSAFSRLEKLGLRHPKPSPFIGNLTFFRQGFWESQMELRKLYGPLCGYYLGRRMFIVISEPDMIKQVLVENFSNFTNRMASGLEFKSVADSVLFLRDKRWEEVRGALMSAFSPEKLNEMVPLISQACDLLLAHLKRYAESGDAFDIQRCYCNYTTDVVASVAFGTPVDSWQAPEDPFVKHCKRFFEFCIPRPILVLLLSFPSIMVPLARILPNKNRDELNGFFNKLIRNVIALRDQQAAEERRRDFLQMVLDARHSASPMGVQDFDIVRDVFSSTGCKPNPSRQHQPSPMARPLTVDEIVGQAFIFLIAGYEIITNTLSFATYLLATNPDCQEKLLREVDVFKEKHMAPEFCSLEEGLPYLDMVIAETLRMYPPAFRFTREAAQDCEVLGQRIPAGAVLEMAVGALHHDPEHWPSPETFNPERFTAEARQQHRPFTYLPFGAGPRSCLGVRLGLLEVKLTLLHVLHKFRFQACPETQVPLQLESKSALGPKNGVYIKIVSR
Protocol: (§1) The effect of the compounds of the formula (I) on the thromboxane synthetase enzyme, and the prostacyclin synthetase and cyclo-oxygenase enzyme has been measured by the following in vitro enzyme assays:
3. Thromboxane A2 (TxA2) Synthetase
Indomethacin pretreated human platelet microsomes (Science 1976, 193, 163) are incubated (2 min.: 0° C.) with PGH2 (produced as in 1) and aliquots of the reaction mixture superfused over two rabbit aorta spirals which are separated by a delay coil (2 min.). The latter is required to allow the selective decay of the more unstable thromboxane A2 (Proc. Nat. Acad. Sci., 1975, 72, 2994) thereby enabling the separate measurement of increased isometric tension due to the TxA2 formed and the PGH2 remaining. The test compound is pre-incubated with the enzyme for 5 minutes, and its ability to inhibit the thromboxane synthetase enzyme is measured as its reduction of the TxA2 component of the isometric tension.
(§2) The results of these tests are shown in the following Table, which gives the molar concentration of each compound which caused a 50% change in the effect of the relevant enzyme on isometric tension, i.e. caused a 50% inhibition of the action of that enzyme.

[7] = molecular target: T1, Prostacyclin (PGI2) Synthetase; test: Prostacyclin (PGI2) synthetase inhibition in vitro (isometric tension of rabbit aorta strip); type: biochemical; settings: pig aorta microsomes; PGH2 substrate, 30 sec, 22° C; 5 min pre-incubation; read-out: Molar concentration causing 50% inhibition of PGI2 Synthetase
Protocol: as §1
2. Prostacyclin (PGI2) Synthetase
Pig aorta microsomes (Nature, 1976, 263, 663) are incubated (30 sec.; 22° C.) with PGH2 produced as in 1) and aliquots bio-assayed as in 1. […] The test compound is then pre-incubated with the enzyme for 5 minutes, and its ability to prevent the decrease in tension is measured.
as §2

[8] = molecular target: T3, Cyclo-oxygenase (Ovis aries, UniProt P05979); test: Cyclo-oxygenase inhibition in vitro (isometric tension of rabbit aorta strip); type: biochemical; settings: ram seminal vesicle microsomes; arachidonic acid 100 μM, 1 min, 22°; 5 min pre-incubation; read-out: Molar concentration causing 50% inhibition of Cyclo-oxygenase
T3 construct: Ram seminal vesicle microsomes; from tissue; host or cells: ram seminal vesicle (microsomes)
T3 sequence (P05979 25-600): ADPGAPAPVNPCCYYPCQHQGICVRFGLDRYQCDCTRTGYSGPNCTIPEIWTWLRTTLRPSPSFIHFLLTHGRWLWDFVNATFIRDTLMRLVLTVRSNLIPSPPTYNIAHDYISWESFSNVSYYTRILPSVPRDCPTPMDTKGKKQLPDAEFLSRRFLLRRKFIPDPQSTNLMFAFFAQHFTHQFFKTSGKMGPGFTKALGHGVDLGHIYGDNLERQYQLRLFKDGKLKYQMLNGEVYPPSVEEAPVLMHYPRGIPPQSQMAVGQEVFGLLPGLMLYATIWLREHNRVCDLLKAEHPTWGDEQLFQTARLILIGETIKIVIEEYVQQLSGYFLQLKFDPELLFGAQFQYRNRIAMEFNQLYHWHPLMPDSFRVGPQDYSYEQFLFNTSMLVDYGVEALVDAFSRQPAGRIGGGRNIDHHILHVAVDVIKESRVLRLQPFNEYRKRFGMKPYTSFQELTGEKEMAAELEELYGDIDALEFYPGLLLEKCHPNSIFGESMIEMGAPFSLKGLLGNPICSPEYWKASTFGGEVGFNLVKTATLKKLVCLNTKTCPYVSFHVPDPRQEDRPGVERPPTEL
Protocol: as §1
Ram seminal vesicle microsomes (Biochemistry, 1971, 10, 2372) are incubated with arachidonic acid (100 μM: 1 min.: 22°) to produce PGH2 and aliquots of the reaction mixture injected into a stream of Krebs-bicarbonate at 37° C. (containing a mixture of antagonists (Nature, 1978, 218, 1135) and indomethacin (Brit. J. Pharmacol., 1972, 45, 451)) which is superfusing a spirally-cut rabbit aorta strip (Nature, 1969, 223, 29). The ability of a compound to inhibit the enzyme is measured by comparing the increases in isometric tension produced by PGH2 in the absence of the test compound, and following pre-incubation of the enzyme with the test compound for 5 minutes.
as §2

Structure (SMILES) | IC50 [6] [nM] | IC50 [7] [µM] | also measured
CCCCCC(/C=C/C=C\C/C=C\C/C=C\CCCC(=O)O)OO (centres unmarked) [15-hydroperoxy-arachidonic acid] |  |  | prevention of the PGI2-induced decrease in tension (PGI2 synthetase inhibition) [1]: prevented completely
O=C1C(CC[S+]([O-])c2ccccc2)C(=O)N(c2ccccc2)N1c1ccccc1 (centres unmarked) [sulphinpyrazone] |  |  | prevention of platelet aggregation in extra corporeal loop of the abdominal aorta [2]: prevent the aggregation of platelets; protection from the lethal effect of arachidonic acid injection [3]: protect the rabbit from the lethal effect of the injection; inhibitory activity in vitro against aggregating agents [4]: show inhibitory activity in vitro
CC(=O)Oc1ccccc1C(=O)O [aspirin] |  |  | protection from the lethal effect of arachidonic acid injection [3]: protect the rabbit from the lethal effect of the injection; inhibitory activity in vitro against aggregating agents [4]: show inhibitory activity in vitro; inhibition of the cyclo-oxygenase enzyme [5]: inhibit the cyclo-oxygenase enzyme
c1ccc(Cn2cccc2Cn2ccnc2)cc1 | 1700 |  | 
O=C(O)CCn1cccc1Cn1ccnc1 [CH2 CH2 CO2 H, 1-(2-Carboxyethyl)-2-(imidazol-1-ylmethyl)pyrrole] | 180 |  | 
c1cc(Cn2ccnc2)n(C2CCCCC2)c1 | 620 |  | 

Continued by falling IC50 [6], values first:

IC50 [6] [nM] | IC50 [7] [µM] | Structure (SMILES) | also measured
150 |  | C=CCn1cccc1Cn1ccnc1 [CH2 CHCH2] | 
4.9 | 35 | O=C(c1ccccc1)n1cccc1Cn1ccnc1 | 
3.4 | 100 | O=C(O)c1ccc(Cn2cccc2Cn2ccnc2)cc1 | IC50 [8]: > 100 µM
2.4 | 22 | CCOC(=O)c1ccc(Cn2cccc2Cn2ccnc2)cc1 | 
1.9 | 6.5 | c1ccc(-n2cccc2Cn2ccnc2)cc1 | 
